Test results taken from ChEMBL document CHEMBL4828764, “Lead Optimization and Structure-Activity Relationship Studies on Myeloid Ecotropic Viral Integration Site 1 Inhibitor” (J Med Chem, 2021).
The source made the active and inactive calls. The rule behind the calls is not given here.

Experiments:
Type in all cases: cell-based
[1] = biological target: T1, Homeobox protein Meis1 (Homo sapiens) (UniProt O00470); test: Inhibition of MEIS1 (unknown origin) expressed in HEK293T cells co-expressing MEIS-Luc-pGL2 assessed as luciferase activity at 10 uM incubated for 48 hrs by luciferase reporter assay related to […] control; design: scale not given: the % may be the effect or the level left
T1 sequence (whole entry): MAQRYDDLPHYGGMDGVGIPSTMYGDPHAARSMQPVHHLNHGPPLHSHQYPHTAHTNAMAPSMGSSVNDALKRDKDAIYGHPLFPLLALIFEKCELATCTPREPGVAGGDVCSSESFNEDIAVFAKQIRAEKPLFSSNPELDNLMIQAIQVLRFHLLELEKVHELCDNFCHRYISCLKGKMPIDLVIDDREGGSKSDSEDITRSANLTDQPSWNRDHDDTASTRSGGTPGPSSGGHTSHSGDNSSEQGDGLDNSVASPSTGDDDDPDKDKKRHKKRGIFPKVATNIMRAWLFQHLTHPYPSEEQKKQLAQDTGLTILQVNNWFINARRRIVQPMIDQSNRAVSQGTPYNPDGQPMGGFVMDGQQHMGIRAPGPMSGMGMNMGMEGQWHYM

[2] = biological target: T1, Homeobox protein Meis1 (Homo sapiens); test: Inhibition of MEIS1 (unknown origin) expressed in HEK293T cells co-expressing MEIS-Luc-pGL2 assessed as luciferase activity at 10 uM incubated for 48 hrs by luciferase reporter assay related to protein content; design: scale not given: the % may be the effect or the level left
[3] = Cytotoxicity against HDF assessed as cell viability at 10 uM incubated for 72 hrs by MTS assay; conditions: human, HDF (NHDF) cells, read-out: Activity
[4] = biological target: T1, Homeobox protein Meis1 (Homo sapiens); test: Inhibition of MEIS1 (unknown origin) expressed in HEK293T cells co-expressing MEIS-Luc-pGL2 assessed as downregulation of Meis1 gene expression measuring mRNA level at 10 uM incubated for 2 days by RT-qPCR analysis; design: scale not given: the % may be the effect or the level left; conditions: time 2.0 day
[5] = biological target: T1, Homeobox protein Meis1 (Homo sapiens); test: Inhibition of MEIS1 (unknown origin) expressed in HEK293T cells co-expressing MEIS-Luc-pGL2 assessed as downregulation of Hif-Ialpha gene expression measuring mRNA level at 10 uM incubated for 2 days by RT-qPCR analysis; conditions: time 2.0 day
[6] = biological target: T1, Homeobox protein Meis1 (Homo sapiens); test: Inhibition of MEIS1 (unknown origin) expressed in HEK293T cells co-expressing MEIS-Luc-pGL2 assessed as downregulation of p21 gene expression by measuring mRNA level at 10 uM incubated for 2 days by RT-qPCR analysis; design: scale not given: the % may be the effect or the level left; conditions: time 2.0 day

Row | SMILES | Activity [1] | Activity [2] | Activity [4] | Activity [5] | Activity [6] | viability at 72 h, 10 µM [3]
1 | Cc1cccc(C)c1NC(=O)c1ccc(OCC(=O)NCc2ccc(Cl)cc2)cc1 | 55% | 77% |  |  |  | 
2 | Cc1cccc(NC(=O)c2ccc(OCC(=O)NCc3ccc([N+](=O)[O-])cc3)cc2)c1C | 144% | 23% |  |  |  | 
3 | COc1ccc(CNC(=O)COc2ccc(C(=O)Nc3cccc(C)c3C)cc2)cc1OC | 35% | 49% | 9.5% | Active | 21.7% | 83.9%
4 | Cc1cccc(NC(=O)c2ccc(OCC(=O)NCc3ccc(Cl)c(Cl)c3)cc2)c1C | 47% | 57% |  |  |  | 
5 | O=C(COc1ccc(C(=O)Nc2cccc(C(F)(F)F)c2)cc1)NCc1ccccc1Cl | 57% | 64% |  |  |  | 
6 | O=C(COc1ccc(C(=O)Nc2ccccc2)cc1)NCc1ccccc1Cl | 48% | 54% |  |  |  | 
7 | O=C(COc1ccc(C(=O)Nc2ccccc2F)cc1)NCc1ccccc1Cl | 62% | 64% |  |  |  | 
8 | O=C(COc1ccc(C(=O)Nc2ccc(F)cc2)cc1)NCc1ccc(Cl)cc1 | 43% | 69% |  |  |  | 
9 | O=C(COc1ccc(C(=O)Nc2cccc(Cl)c2)cc1)NCc1ccc(Cl)cc1 | 32% | 51% | 4.5% | Active | 19.7% | 86.4%
10 | Cc1cccc(NC(=O)c2ccc(OCC(=O)NCc3ccccc3)cc2)c1C | 69% | 66% | 12% |  | 17.8% | 
11 | O=C(COc1ccc(C(=O)Nc2ccc(F)cc2)cc1)NCc1ccccc1Cl | 50% | 51% |  |  |  | 
12 | CCc1cccc(NC(=O)c2ccc(OCC(=O)NCc3ccc(Cl)cc3)cc2)c1 | 49% | 69% |  |  |  | 
13 | CCc1ccccc1NC(=O)c1ccc(OCC(=O)NCc2ccccc2Cl)cc1 | 66% | 63% |  |  |  | 
14 | Cc1cccc(NC(=O)c2ccc(OCC(=O)NCc3cccc(Cl)c3Cl)cc2)c1C | 161% | 48% |  |  |  | 
15 | Cc1cccc(NC(=O)c2ccc(OCC(=O)NCc3ccc(Cl)cc3Cl)cc2)c1C | 61% | 52% |  |  |  | 
16 | COc1ccc(CNC(=O)COc2ccc(C(=O)Nc3ccccc3)cc2)cc1 | 43% | 43% |  |  |  | 
17 | COc1ccc(NC(=O)c2ccc(OCC(=O)NCc3ccccc3Cl)cc2)cc1OC | 82% | 80% |  |  |  | 
18 | COc1ccc(CNC(=O)COc2ccc(C(=O)Nc3cccc(C(F)(F)F)c3)cc2)cc1 | 1% | 1% | 15.1% | Active | 49.5% | 76%
19 | O=C(COc1ccc(C(=O)Nc2ccc(Oc3ccc(Br)cc3)cc2)cc1)NCc1ccccc1Cl | 82% | 82% |  |  |  | 
20 | Cc1cccc(NC(=O)c2ccc(OCC(=O)NCc3ccccc3Cl)cc2)c1C | 34% | 43% | 13.7% | Active | 25.3% | 64.8%
21 | COc1ccc(CNC(=O)COc2ccc(C(=O)Nc3cccc(Cl)c3)cc2)cc1 | 5% | 5% | 5.9% | Active | 12.7% | 90%
22 | COc1ccc(CNC(=O)COc2ccc(C(=O)Nc3ccc(Oc4ccc(Br)cc4)cc3)cc2)cc1 | 45% | 37% |  |  |  | 
23 | COc1ccc(CNC(=O)COc2ccc(C(=O)Nc3ccc(F)cc3)cc2)cc1 | 31% | 25% | 7.5% | Active | 20.3% | 86.2%
24 | COc1ccc(CNC(=O)COc2ccc(C(=O)Nc3c(C)cccc3C)cc2)cc1 | 62% | 58% |  |  |  | 
25 | Cc1cccc(NC(=O)c2ccc(OCC(=O)NCc3ccc(F)cc3)cc2)c1C | 36% | 40% | 24.3% | Active | 25.6% | 90.4%
26 | COc1ccc(NC(=O)c2ccc(OCC(=O)NCc3ccc(Cl)cc3)cc2)cc1OC | 45% | 56% |  |  |  | 
27 | CCc1cccc(NC(=O)c2ccc(OCC(=O)NCc3ccc(OC)cc3)cc2)c1 | 51% | 51% |  |  |  | 

More lines, main results first:

Row | Activity [1] | Activity [2] | Activity [4] | Activity [5] | Activity [6] | SMILES | viability at 72 h, 10 µM [3]
28 | 41% | 42% |  |  |  | CCc1cccc(NC(=O)c2ccc(OCC(=O)NCc3ccccc3Cl)cc2)c1 | 
29 | 40% | 65% |  |  |  | O=C(COc1ccc(C(=O)Nc2ccccc2F)cc1)NCc1ccc(Cl)cc1 | 
30 | 70% | 63% |  |  |  | COc1ccc(CNC(=O)COc2ccc(C(=O)Nc3ccc(OC)c(OC)c3)cc2)cc1 | 
31 | 30% | 28% | 6.6% | Active | 5.2% | COc1ccc(CNC(=O)COc2ccc(C(=O)Nc3cc(C(F)(F)F)ccc3F)cc2)cc1 | 105%
32 | 51% | 48% |  |  |  | Cc1ccc(CNC(=O)COc2ccc(C(=O)Nc3cccc(C)c3C)cc2)cc1 | 
33 | 58% | 53% |  |  |  | Cc1cccc(C)c1NC(=O)c1ccc(OCC(=O)NCc2ccccc2Cl)cc1 | 
34 | 81% | 26% |  |  |  | Cc1cccc(NC(=O)c2ccc(OCC(=O)NCc3ccc(C(F)(F)F)cc3)cc2)c1C | 
35 | 75% | 83% |  |  |  | O=C(COc1ccc(C(=O)Nc2ccccc2)cc1)NCc1ccc(Cl)cc1 | 
36 | 34% | 38% | 35.9% | Active | 47.4% | Cc1cccc(NC(=O)c2ccc(OCC(=O)NCc3ccc(Cl)cc3)cc2)c1C | 73.5%
37 | 48% | 50.6% | 14.3% | Active | 15.7% | COc1ccc(CNC(=O)COc2ccc(C(=O)Nc3cccc(C)c3C)cc2)cc1 | 86.3%
38 | 44% | 46% |  |  |  | O=C(COc1ccc(C(=O)Nc2cccc(C(F)(F)F)c2)cc1)NCc1ccc(Cl)cc1 | 
39 | 42% | 72% |  |  |  | O=C(COc1ccc(C(=O)Nc2ccc(Oc3ccc(Br)cc3)cc2)cc1)NCc1ccc(Cl)cc1 | 
40 | 36% | 51% | 19.2% | Active | 139% | CCc1ccccc1NC(=O)c1ccc(OCC(=O)NCc2ccc(Cl)cc2)cc1 | 31.3%
41 | 106% | 57% |  |  |  | Cc1cccc(NC(=O)c2ccc(OCC(=O)NCc3cccc(C(F)(F)F)c3)cc2)c1C | 
42 | 20% | 19% | 8.3% | Active | 8.5% | CCc1ccccc1NC(=O)c1ccc(OCC(=O)NCc2ccc(OC)cc2)cc1 | 78%
43 | 96% | 88% |  |  |  | O=C(COc1ccc(C(=O)Nc2cccc(Cl)c2)cc1)NCc1ccccc1Cl | 
44 | 17% | 50% |  |  |  | COc1ccc(CNC(=O)COc2ccc(C(=O)Nc3cccc(C)c3C)cc2)c(OC)c1 | 
45 | 54% | 52% |  |  |  | Cc1cccc(NC(=O)c2ccc(OCC(=O)NCc3ccc4c(c3)OCO4)cc2)c1C | 
46 | 70% | 66% |  |  |  | COc1ccc(CNC(=O)COc2ccc(C(=O)Nc3ccccc3F)cc2)cc1 | 
